# Assays:
# Experiment in all cases: relative viability (nuclei count vs DMSO), 5 days (fraction); higher = more cells survive
# Decitabine + Trametinib = compound: Nc1ncn([C@H]2C[C@H](O)[C@@H](CO)O2)c(=O)n1 [Decitabine] + CC(=O)Nc1cccc(-n2c(=O)n(C3CC3)c(=O)c3c(Nc4ccc(I)cc4F)n(C)c(=O)c(C)c32)c1 [Trametinib] (partner 0.02 µM)
# Procedure, shortened: (§1)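 Relative viability was taken as the ratio of nuclei in treated wells to nuclei in vehicle wells. Lung cancer cell lines in 1536-well plates received compounds by pin tool one day after seeding, either one drug alone or a fixed anchor-drug dose plus five library-drug doses (not always all listed) in √10 steps. Nuclei were counted on 4× images after 5 days of treatment, and values are medians of duplicate plates.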
# Halofuginone + Lapatinib = compound: O=C(C[C@H]1NCCC[C@@H]1O)Cn1cnc2cc(Br)c(Cl)cc2c1=O (racemic) [Halofuginone] + CS(=O)(=O)CCNCc1ccc(-c2ccc3ncnc(Nc4ccc(OCc5cccc(F)c5)c(Cl)c4)c3c2)o1 [Lapatinib] (partner 2 µM)
# Procedure, shortened: as §1
# [1] = compound: O=C(C[C@H]1NCCC[C@@H]1O)Cn1cnc2cc(Br)c(Cl)cc2c1=O (racemic) [Halofuginone] + CC(C)C[C@H](NC(=O)[C@H](Cc1ccccc1)NC(=O)c1cnccn1)B(O)O [Bortezomib] (partner 0.002 µM)
# Procedure, shortened: as §1
# Decitabine + Vorinostat = compound: Nc1ncn([C@H]2C[C@H](O)[C@@H](CO)O2)c(=O)n1 [Decitabine] + O=C(CCCCCCC(=O)Nc1ccccc1)NO [Vorinostat] (partner 1 µM)
# Procedure, shortened: as §1
Cell Line,relative viability (Decitabine + Trametinib; first compound 0.04 µM),relative viability (Decitabine + Trametinib; first compound 0.1265 µM),relative viability (Decitabine + Trametinib; first compound 0.4 µM),relative viability (Decitabine + Trametinib; first compound 4 µM),relative viability (Halofuginone + Lapatinib; first compound 0.001 µM),relative viability (Halofuginone + Lapatinib; first compound 0.003162 µM),relative viability (Halofuginone + Lapatinib; first compound 0.01 µM),relative viability (Halofuginone + Lapatinib; first compound 0.03162 µM),relative viability (Halofuginone + Lapatinib; first compound 0.1 µM),relative viability ([1]; first compound 0.001 µM),relative viability ([1]; first compound 0.003162 µM),relative viability ([1]; first compound 0.01 µM),relative viability ([1]; first compound 0.03162 µM),relative viability ([1]; first compound 0.1 µM),relative viability (Decitabine + Vorinostat; first compound 0.04 µM),relative viability (Decitabine + Vorinostat; first compound 0.1265 µM),relative viability (Decitabine + Vorinostat; first compound 0.4 µM),relative viability (Decitabine + Vorinostat; first compound 4 µM),relative viability (Decitabine + Trametinib; first compound 1.265 µM),relative viability (Decitabine + Vorinostat; first compound 1.265 µM)
201T,0.739,0.721,0.773,0.708,1.02,0.97,1.05,1.04,1.04,1.06,1.1,1.15,1.1,1.16,0.939,1.01,0.952,0.884,–,–
A-427,0.594,0.677,0.461,0.401,1.08,0.977,1.01,1.07,1.07,1,0.869,1,0.954,0.932,0.789,0.732,0.526,0.396,0.394,0.411
BEN,1.1,0.947,0.772,0.622,0.782,0.881,0.861,0.588,0.443,0.865,0.826,0.865,0.682,0.408,0.664,0.623,0.451,0.435,0.558,0.488
CAL-12T,0.303,0.361,0.217,0.294,0.765,0.609,–,0.729,0.561,1.13,1.04,–,1.37,0.894,0.615,0.432,0.486,0.238,0.265,0.318
COR-L23,0.374,0.452,0.321,0.23,0.924,1.06,0.95,1.01,0.379,1.15,1.1,0.963,0.965,0.184,0.258,0.259,0.184,0.126,0.219,0.132
COR-L 105,0.411,0.461,0.451,0.383,0.438,0.39,0.317,0.374,0.285,1.01,0.86,0.769,0.674,0.44,0.768,0.721,0.61,0.439,0.429,0.585
EKVX,0.254,0.25,0.259,0.23,0.22,0.213,0.183,0.203,0.202,1.15,1.02,1.05,1.01,0.935,0.455,0.506,0.507,0.335,0.221,0.432
EMC-BAC-2,–,0.935,0.795,0.8,0.952,0.888,0.86,0.89,0.807,1.1,1.09,1.08,1.02,0.986,–,0.456,0.538,0.43,0.841,0.414
EPLC-272H,0.293,0.29,–,0.234,0.891,0.851,0.976,0.958,0.907,0.772,1.09,0.918,0.98,0.779,0.369,0.281,–,0.215,0.251,0.221
H3255,–,0.686,0.506,0.46,0.272,0.255,0.241,0.259,0.235,0.906,0.664,0.616,0.767,0.651,–,0.846,0.638,0.76,0.5,0.487
HARA,0.285,0.454,0.491,0.304,0.705,0.637,0.721,0.667,0.555,1.12,1.03,1.09,1.15,1.14,0.507,0.377,0.345,0.214,0.228,0.213
HCC-15,0.4,0.399,0.353,0.313,0.88,0.887,0.829,0.863,0.785,1.02,1.14,1.05,1.03,0.952,0.776,0.678,0.543,0.35,0.338,0.418
HCC-44,1.04,0.991,0.833,0.75,1.02,1.01,0.955,0.997,0.808,0.926,0.848,0.794,0.802,0.575,1.06,0.982,0.839,0.785,0.819,0.904
HCC-78,0.758,0.688,0.581,0.451,0.931,0.698,0.707,0.903,0.137,0.653,0.42,0.445,0.543,0.369,0.54,0.476,0.477,0.346,0.544,0.448
HCC-366,0.361,0.334,0.258,0.109,1.05,1.17,0.979,1.08,0.542,0.948,1.06,1.04,0.994,0.397,0.235,0.313,0.138,0.0657,0.12,0.0554
HCC-827,0.222,0.378,0.322,0.344,0.192,0.189,0.236,0.233,0.202,1.04,1.03,0.955,0.998,0.918,0.143,0.32,0.303,0.287,0.257,0.243

Cell Line,relative viability (Decitabine + Trametinib; first compound 0.04 µM),relative viability (Decitabine + Trametinib; first compound 0.1265 µM),relative viability (Decitabine + Trametinib; first compound 0.4 µM),relative viability (Decitabine + Trametinib; first compound 4 µM),relative viability (Halofuginone + Lapatinib; first compound 0.001 µM),relative viability (Halofuginone + Lapatinib; first compound 0.003162 µM),relative viability (Halofuginone + Lapatinib; first compound 0.01 µM),relative viability (Halofuginone + Lapatinib; first compound 0.03162 µM),relative viability (Halofuginone + Lapatinib; first compound 0.1 µM),relative viability ([1]; first compound 0.001 µM),relative viability ([1]; first compound 0.003162 µM),relative viability ([1]; first compound 0.01 µM),relative viability ([1]; first compound 0.03162 µM),relative viability ([1]; first compound 0.1 µM),relative viability (Decitabine + Vorinostat; first compound 0.04 µM),relative viability (Decitabine + Vorinostat; first compound 0.1265 µM),relative viability (Decitabine + Vorinostat; first compound 0.4 µM),relative viability (Decitabine + Vorinostat; first compound 4 µM),relative viability (Decitabine + Trametinib; first compound 1.265 µM),relative viability (Decitabine + Vorinostat; first compound 1.265 µM)
HOP-62,0.358,0.338,0.262,0.187,0.983,1.09,0.936,0.791,0.948,0.679,0.702,0.62,0.632,0.522,0.348,0.316,0.161,0.11,0.202,0.123
LC-2-ad,0.778,0.837,0.763,0.573,0.98,1.02,0.93,0.874,0.726,1.3,1.08,0.972,1.01,0.667,0.642,0.635,0.608,0.406,0.651,0.365
LCLC-97TM1,0.219,0.213,0.183,0.155,0.72,0.881,1.02,0.754,0.825,0.49,0.365,0.512,0.144,0.179,0.273,0.159,0.107,0.0784,0.144,0.0989
LOU-NH91,0.661,0.831,0.78,0.757,0.77,0.746,0.747,0.738,0.676,0.461,0.498,0.484,0.459,0.535,0.768,0.958,0.848,0.849,0.707,0.805
LU99A,0.51,0.569,0.632,0.396,0.985,0.965,0.892,0.934,0.607,1.15,1.1,1.07,1.14,0.8,0.469,0.513,0.523,0.397,0.397,0.453
LXF-289,0.647,0.519,0.38,0.314,0.891,0.893,0.847,0.874,0.895,0.928,1.08,0.985,0.996,0.908,0.462,0.354,0.293,0.266,0.312,0.243
NCI-H23,0.344,0.365,0.238,0.255,1.28,1.03,1.2,0.713,0.707,1,1.24,1.02,0.947,0.494,0.281,0.301,0.256,0.179,0.191,0.176
NCI-H322M,0.508,0.453,0.6,0.486,0.47,0.583,0.585,0.607,0.493,1.16,1.13,1.28,1.16,0.997,0.715,0.792,0.816,0.664,0.457,0.61
NCI-H460,0.173,0.229,0.214,0.13,0.948,1.27,0.967,0.573,0.11,1.07,1.09,0.922,0.66,0.0555,0.669,0.64,0.293,0.0759,0.109,0.214
NCI-H520,0.529,0.349,0.424,0.266,0.98,0.811,0.96,0.704,0.401,0.723,0.721,0.494,0.579,0.314,0.622,0.627,0.413,0.296,0.307,0.397
NCI-H596,0.881,0.744,0.509,0.542,1.06,1.18,1.02,1.07,0.661,1,1.01,0.934,1.01,0.698,0.613,0.618,0.553,0.507,0.575,0.51
NCI-H647,0.589,0.595,0.43,0.138,1.14,1.07,1.04,1.02,0.533,1.2,1.1,0.833,0.912,0.367,0.327,0.219,0.269,0.105,0.246,0.109
NCI-H650,0.717,0.561,0.418,0.259,1.12,0.48,1,0.775,0.515,0.903,0.877,0.717,0.694,0.576,0.338,0.301,0.204,0.16,0.319,0.219
NCI-H661,0.502,0.577,0.508,0.404,0.558,0.546,0.424,0.508,0.366,0.848,0.826,0.845,0.822,0.536,0.806,0.602,0.54,0.485,0.392,0.467
NCI-H727,0.396,0.377,0.344,0.363,0.704,0.676,0.949,0.798,0.508,0.981,0.798,0.927,0.856,0.468,1.08,0.973,0.664,1.1,0.372,0.835
NCI-H838,0.476,0.397,0.237,0.279,1.25,1.16,0.891,0.748,0.164,1.16,1.03,0.746,0.614,0.121,0.701,0.595,0.641,0.34,0.283,0.383
